From US9073855B2, “BCL-2 selective apoptosis-inducing agents for the treatment of cancer and immune diseases” (AbbVie Inc., priority 2008, dated 2015)

Tests used:
[1] = molecular target: GST-Bcl-XL (Homo sapiens, UniProt Q07817); experiment: TR-FRET binding assay, GST-Bcl-XL with F-Bak peptide probe; settings: TR-FRET Binding Affinity, GST-Bcl-XL, F-Bak peptide probe
Outline: (§1)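 Displacement of a fluorescein-labelled Bak peptide from the GST-tagged protein was followed by time-resolved FRET with a terbium anti-GST donor after 3 h incubation at room temperature. Inhibition constants were calculated with Wang's equation.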

[2] = molecular target: GST-Bcl-2 (Homo sapiens, UniProt P10415); experiment: TR-FRET binding assay, GST-Bcl-2 with F-Bak peptide probe; settings: TR-FRET Binding Affinity, GST-Bcl-2, F-Bak peptide probe
Outline: as §1

[3] = tested on: FL5.12/Bcl-2 cells; experiment: FL5.12/Bcl-2 cell viability assay under IL-3 withdrawal (CellTitre Glo); type: cell-based, murine; settings: Mus musculus, IL-3 withdrawn 48 hrs, then 24 hrs with compound
Outline: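 IL-3 withdrawal 48 hrs (no WEHI-3B medium), then compound 24 hrs, various concentrations; 37° C, 5% CO2; readout CellTitre Glo. Murine prolymphocytic FL5.12 stably overexpressing Bcl-2.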

Chain of GST-Bcl-2 (P10415 whole entry): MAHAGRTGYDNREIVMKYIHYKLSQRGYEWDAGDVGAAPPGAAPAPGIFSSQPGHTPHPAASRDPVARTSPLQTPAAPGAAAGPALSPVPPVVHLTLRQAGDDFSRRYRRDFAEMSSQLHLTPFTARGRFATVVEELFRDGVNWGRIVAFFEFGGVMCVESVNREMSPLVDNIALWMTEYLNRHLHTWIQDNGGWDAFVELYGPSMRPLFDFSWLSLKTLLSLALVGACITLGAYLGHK
Chain of GST-Bcl-XL (Q07817 whole entry): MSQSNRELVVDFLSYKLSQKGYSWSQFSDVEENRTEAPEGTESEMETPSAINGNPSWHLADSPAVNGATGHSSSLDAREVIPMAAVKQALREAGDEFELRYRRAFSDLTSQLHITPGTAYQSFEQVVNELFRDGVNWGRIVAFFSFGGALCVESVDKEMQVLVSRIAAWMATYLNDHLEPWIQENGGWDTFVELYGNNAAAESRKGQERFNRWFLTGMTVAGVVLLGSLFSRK

| SMILES | Ki [1] [nM] | Ki [2] [nM] | EC50 [3] [nM] |
| --- | --- | --- | --- |
| CC1(C)CCC(CN2CCN(c3ccc(C(=O)NS(=O)(=O)c4ccc(NCC5CCN(C(=O)OCc6ccccc6)CC5)c([N+](=O)[O-])c4)c(Oc4ccc5[nH]ccc5c4)c3)CC2)=C(c2ccc(Cl)cc2)C1 [Example 356, benzyl 4-({[4-({[4-(4-{[2-(4-chlorophenyl)-4,4-dimethylcyclohex-1-en-1-yl]methyl}piperazin-1-yl)-2-(1H-indol-5-yloxy)benzoyl]amino}sulfonyl)-2-nitrophenyl]amino}methyl)piperidine-1-carboxylate] | > 660 | 5.02 | > 500 |
| CC1(C)CCC(CN2CCN(c3ccc(C(=O)NS(=O)(=O)c4ccc(NCCN5CCCCC5=O)c([N+](=O)[O-])c4)c(Oc4ccc5[nH]ccc5c4)c3)CC2)=C(c2ccc(Cl)cc2)C1 [Example 267, 4-(4-{[2-(4-chlorophenyl)-4,4-dimethylcyclohex-1-en-1-yl]methyl}piperazin-1-yl)-2-(1H-indol-5-yloxy)-N-[(3-nitro-4-{[2-(2-oxopiperidin-1-yl)ethyl]amino}phenyl)sulfonyl]benzamide] | > 660 | 0.454 | 56.4 |
| CC(C1=C(c2ccc(Cl)cc2)CC(C)(C)CC1)N1CCN(c2ccc(C(=O)NS(=O)(=O)c3ccc(NCCCN4CCOCC4)c([N+](=O)[O-])c3)c(Oc3ccc4[nH]ccc4c3)c2)CC1 (stereo not drawn) [Example 257, 4-(4-{1-[2-(4-chlorophenyl)-4,4-dimethylcyclohex-1-en-1-yl]ethyl}piperazin-1-yl)-2-(1H-indol-5-yloxy)-N-({4-[(3-morpholin-4-ylpropyl)amino]-3-nitrophenyl}sulfonyl)benzamide] | 17.1 | 0.171 | 9.34 |
| CC1(C)CCC(CN2CCN(c3ccc(C(=O)NS(=O)(=O)c4ccc(S(=O)(=O)N5CCOCC5)cc4)c(Oc4ccc5[nH]ccc5c4)c3)CC2)=C(c2ccc(Cl)cc2)C1 [Example 361, 4-(4-{[2-(4-chlorophenyl)-4,4-dimethylcyclohex-1-en-1-yl]methyl}piperazin-1-yl)-2-(1H-indol-5-yloxy)-N-{[4-(morpholin-4-ylsulfonyl)phenyl]sulfonyl}benzamide] | > 660 | 7.13 | > 500 |
| CC1(C)CCC(CN2CCN(c3ccc(C(=O)NS(=O)(=O)c4cnc(OCC5CCOCC5)c(Br)c4)c(Oc4ccc5[nH]ccc5c4)c3)CC2)=C(c2ccc(Cl)cc2)C1 [Example 329, N-{[5-bromo-6-(tetrahydro-2H-pyran-4-ylmethoxy)pyridin-3-yl]sulfonyl}-4-(4-{[2-(4-chlorophenyl)-4,4-dimethylcyclohex-1-en-1-yl]methyl}piperazin-1-yl)-2-(1H-indol-5-yloxy)benzamide] | > 660 | 0.285 | 127 |
| COCCOCCSc1ccc(S(=O)(=O)NC(=O)c2ccc(N3CCN(CC4=C(c5ccc(Cl)cc5)CC(C)(C)CC4)CC3)cc2Oc2ccc3[nH]ccc3c2)cc1[N+](=O)[O-] [Example 380, 4-(4-{[2-(4-chlorophenyl)-4,4-dimethylcyclohex-1-en-1-yl]methyl}piperazin-1-yl)-2-(1H-indol-5-yloxy)-N-[(4-{[2-(2-methoxyethoxy)ethyl]thio}-3-nitrophenyl)sulfonyl]benzamide] | 175 | 0.083 | 68.5 |
| CC1(C)CCC(CN2CCN(c3ccc(C(=O)NS(=O)(=O)c4ccc(OC5CCN(C6CCOCC6)CC5)c([N+](=O)[O-])c4)c(Oc4ccc5[nH]ccc5c4)c3)CC2)=C(c2ccc(Cl)cc2)C1 [Example 389, 4-(4-{[2-(4-chlorophenyl)-4,4-dimethylcyclohex-1-en-1-yl]methyl}piperazin-1-yl)-2-(1H-indol-5-yloxy)-N-({3-nitro-4-[(1-tetrahydro-2H-pyran-4-ylpiperidin-4-yl)oxy]phenyl}sulfonyl)benzamide] | 67.2 | 0.098 | 28.1 |
| CC(C1=C(c2ccc(Cl)cc2)CC(C)(C)CC1)N1CCN(c2ccc(C(=O)NS(=O)(=O)c3ccc(NCC4CCOCC4)c([N+](=O)[O-])c3)c(Oc3ccc4[nH]ccc4c3)c2)CC1 (stereo not drawn) [Example 253, 4-(4-{1-[2-(4-chlorophenyl)-4,4-dimethylcyclohex-1-en-1-yl]ethyl}piperazin-1-yl)-2-(1H-indol-5-yloxy)-N-({3-nitro-4-[(tetrahydro-2H-pyran-4-ylmethyl)amino]phenyl}sulfonyl)benzamide] | > 660 | 0.142 | 7.58 |
| CC(c1ccccc1-c1ccc(Cl)cc1)N1CCN(c2ccc(C(=O)NS(=O)(=O)c3ccc(NCC4CCOCC4)c([N+](=O)[O-])c3)c(Oc3cccc4[nH]ccc34)c2)CC1 (stereo not drawn) [Example 175, 4-{4-[1-(4′-chloro-1,1′-biphenyl-2-yl)ethyl]piperazin-1-yl}-2-(1H-indol-4-yloxy)-N-({3-nitro-4-[(tetrahydro-2H-pyran-4-ylmethyl)amino]phenyl}sulfonyl)benzamide] | > 660 | 0.1 | 6.2 |
| CC1(C)CCC(CN2CCN(c3ccc(C(=O)NS(=O)(=O)c4ccc(NC5CCC(N6CCOCC6)CC5)c([N+](=O)[O-])c4)c(Oc4ccc5[nH]ccc5c4)c3)CC2)=C(c2ccc(Cl)cc2)C1 (stereo not drawn) [Example 363, 4-(4-{[2-(4-chlorophenyl)-4,4-dimethylcyclohex-1-en-1-yl]methyl}piperazin-1-yl)-2-(1H-indol-5-yloxy)-N-({4-[(4-morpholin-4-ylcyclohexyl)amino]-3-nitrophenyl}sulfonyl)benzamide] | > 660 | 0.18 | 86.9 |
| CC1(C)CCC(CN2CCN(c3ccc(C(=O)NS(=O)(=O)c4ccc(C(=O)NCC5CCOCC5)cc4)c(Oc4ccc5[nH]ccc5c4)c3)CC2)=C(c2ccc(Cl)cc2)C1 [Example 308, 4-(4-{[2-(4-chlorophenyl)-4,4-dimethylcyclohex-1-en-1-yl]methyl}piperazin-1-yl)-2-(1H-indol-5-yloxy)-N-[(4-{[(tetrahydro-2H-pyran-4-ylmethyl)amino]carbonyl}phenyl)sulfonyl]benzamide] | > 660 | 57.4 | > 500 |
| CN1CCC(O)(CNc2ccc(S(=O)(=O)NC(=O)c3ccc(N4CCN(CC5=C(c6ccc(Cl)cc6)CC(C)(C)CC5)CC4)cc3Oc3cccc4[nH]ccc34)cc2[N+](=O)[O-])CC1 [Example 186, 4-(4-{[2-(4-chlorophenyl)-4,4-dimethylcyclohex-1-en-1-yl]methyl}piperazin-1-yl)-N-[(4-{[(4-hydroxy-1-methylpiperidin-4-yl)methyl]amino}-3-nitrophenyl)sulfonyl]-2-(1H-indol-4-yloxy)benzamide] | 11.2 | 0.01 | 20.4 |
| CC1(C)CCC(CN2CCN(c3ccc(C(=O)NS(=O)(=O)c4ccc(NCC5(N)CCOCC5)c([N+](=O)[O-])c4)c(Oc4ccc5[nH]ccc5c4)c3)CC2)=C(c2ccc(Cl)cc2)C1 [Example 188, N-[(4-{[(4-aminotetrahydro-2H-pyran-4-yl)methyl]amino}-3-nitrophenyl)sulfonyl]-4-(4-{[2-(4-chlorophenyl)-4,4-dimethylcyclohex-1-en-1-yl]methyl}piperazin-1-yl)-2-(1H-indol-5-yloxy)benzamide] | 115 | 0.102 | 24.7 |
| CC1(C)CCC(CN2CCN(c3ccc(C(=O)NS(=O)(=O)c4ccc(NCC5CCOCC5)c([N+](=O)[O-])c4)c(Oc4cccc5[nH]ccc45)c3)CC2)=C(c2ccc(Cl)cc2)C1 [Example 244, 4-(4-{[2-(4-chlorophenyl)-4,4-dimethylcyclohex-1-en-1-yl]methyl}piperazin-1-yl)-2-(1H-indol-4-yloxy)-N-({3-nitro-4-[(tetrahydro-2H-pyran-4-ylmethyl)amino]phenyl}sulfonyl)benzamide] | > 660 | 0.16 | 20.2 |
| CC1(C)CCC(CN2CCN(c3ccc(C(=O)NS(=O)(=O)c4ccc(NCCCN5CCS(=O)(=O)CC5)c([N+](=O)[O-])c4)c(Oc4cccc5[nH]ccc45)c3)CC2)=C(c2ccc(Cl)cc2)C1 [Example 295, 4-(4-{[2-(4-chlorophenyl)-4,4-dimethylcyclohex-1-en-1-yl]methyl}piperazin-1-yl)-N-[(4-{[3-(1,1-dioxidothiomorpholin-4-yl)propyl]amino}-3-nitrophenyl)sulfonyl]-2-(1H-indol-4-yloxy)benzamide] | 110 | 0.183 | 46.3 |
| CC1(C)CCC(CN2CCN(c3ccc(C(=O)NS(=O)(=O)c4ccc(NCC5(N6CCOCC6)CCCCC5)c([N+](=O)[O-])c4)c(Oc4ccc5[nH]ccc5c4)c3)CC2)=C(c2ccc(Cl)cc2)C1 [Example 229, 4-(4-{[2-(4-chlorophenyl)-4,4-dimethylcyclohex-1-en-1-yl]methyl}piperazin-1-yl)-2-(1H-indol-5-yloxy)-N-[(4-{[(1-morpholin-4-ylcyclohexyl)methyl]amino}-3-nitrophenyl)sulfonyl]benzamide] | > 660 | 49.4 | > 500 |
| CNc1ccc(S(=O)(=O)NC(=O)c2ccc(N3CCN(CC4=C(c5ccc(Cl)cc5)CC(C)(C)CC4)CC3)cc2Oc2ccc3[nH]ccc3c2)cc1[N+](=O)[O-] [Example 245, 4-(4-{[2-(4-chlorophenyl)-4,4-dimethylcyclohex-1-en-1-yl]methyl}piperazin-1-yl)-2-(1H-indol-5-yloxy)-N-{[4-(methylamino)-3-nitrophenyl]sulfonyl}benzamide] | > 660 | 1.62 | 72.4 |
